Data published in patent US10160812B2, “Bispecific HER2 antibodies” (MedImmune, LLC, priority 2014, dated 2018).

Tests used:
MDA-MB-453 = assay: In vitro cytotoxic activity (Cell Titer Glo); format: cell-based, human; details: MDA-MB-453, 3 to 4 days; read-out: In vitro potency (EC50 in pM)
NCI-N87 = details: read-out: In vitro potency (EC50 in pM); NCI-N87, 3 to 4 days
Protocol: A panel of human cancer cell lines expressing various levels of HER2 was used to evaluate the cytotoxic activity of bispecific ADC (Table 5 in Example 1). Briefly, cells were harvested, resuspended, and plated in serum-containing culture media at a density of 5,000 to 20,000 per well (depending on the growth kinetics of each cell line) of 96-well plates in a volume of 100 μL. A 2× concentration of each dose of antibody or ADC to be tested was prepared by diluting the test articles in culture medium. One hundred microliters of each test article was added to cells in triplicate such that the final dose curve ranged from 5 nM down to 0.08 pM in a stepwise 1:4 serial dilution series. The treated cells were incubated at 37° C./5% CO2 for 3 to 4 days, depending on the growth kinetics of each particular cell line. Cell viability was determined using Cell Titer Glo according to manufacturer's instructions. Data are analyzed by the GraphPad Prism software and presented as percent growth inhibition relative to the untreated control. EC50 values were determined using Sigmoidal non-linear regression analysis with GraphPad Prism software and were summarized in Table 6.

ST455B model = assay: PDX tumor model (triple-negative, HER2 IHC 1+); format: in vivo, Athymic nude mice; details: Bs2-4T at 3 mg/kg
Protocol: (§1) All mouse experiments were carried out in compliance with the guidelines published by the Association for Assessment and Accreditation of Laboratory Animal Care (AAALAC) and protocols approved by the MedImmune Institutional Animal Care and Use Committee. Athymic nude mice between 4-8 weeks of age were used in the studies. In subcutaneous CBX models, animals were injected unilaterally on the right flank with tumor cells harvested from culture at a specific passage lot. In orthotopic CBX models, xenografts were established by injecting 5×10^6 cells per mouse (suspended in 50% matrigel) into the mammary fat pad on the right flank of animals. In PDX models, animals are implanted unilaterally on the flank with tumor fragments harvested from host animals each implanted from a specific passage lot. Pre-study tumor volumes were recorded for each experiment beginning approximately one week prior to its estimated start date. When tumors reach the appropriate tumor volume initiation (TVI) range (typically 150-250 mm^3), animals are randomized into treatment and control groups and dosing initiated. […] Animals were observed daily and tumor dimensions and body weights were measured and recorded twice weekly. Tumor volumes are calculated using the following formula: tumor volume=π÷6 (length×width^2). […]

ST996 model = assay: PDX tumor model (triple-negative, HER2 IHC 1+); format: in vivo, Athymic nude mice; details: Bs2-2T at 3 mg/kg
Protocol: as §1

SKBR-3 = assay: In vitro cytotoxic activity (Cell Titer Glo); format: cell-based, human; details: SKBR-3, 3 to 4 days; read-out: In vitro potency (EC50 in pM)
MDA-MB-361 model = assay: CBX xenograft tumor model; format: in vivo, Athymic nude mice; details: MDA-MB-361 CBX, 3 mg/kg
Protocol: as §1

RT-112 = assay: In vitro cytotoxic activity (Cell Titer Glo); format: cell-based, human; details: RT-112, 3 to 4 days
ZR-75-1 = assay: In vitro cytotoxic activity (Cell Titer Glo); format: cell-based, human; details: ZR-75-1, 3 to 4 days
mouse Her2 = mouse Her2 (Mus musculus, UniProt P70424); assay: Capture ELISA binding specificity / species cross-reactivity; set-up: recombinant extracellular domain proteins: human EGFR, human HER2, human HER3, human HER4, mouse Her2, or cynomolgus monkey Her2; details: recombinant extracellular domain protein
Chain of mouse Her2 (P70424 23-653 limits assumed): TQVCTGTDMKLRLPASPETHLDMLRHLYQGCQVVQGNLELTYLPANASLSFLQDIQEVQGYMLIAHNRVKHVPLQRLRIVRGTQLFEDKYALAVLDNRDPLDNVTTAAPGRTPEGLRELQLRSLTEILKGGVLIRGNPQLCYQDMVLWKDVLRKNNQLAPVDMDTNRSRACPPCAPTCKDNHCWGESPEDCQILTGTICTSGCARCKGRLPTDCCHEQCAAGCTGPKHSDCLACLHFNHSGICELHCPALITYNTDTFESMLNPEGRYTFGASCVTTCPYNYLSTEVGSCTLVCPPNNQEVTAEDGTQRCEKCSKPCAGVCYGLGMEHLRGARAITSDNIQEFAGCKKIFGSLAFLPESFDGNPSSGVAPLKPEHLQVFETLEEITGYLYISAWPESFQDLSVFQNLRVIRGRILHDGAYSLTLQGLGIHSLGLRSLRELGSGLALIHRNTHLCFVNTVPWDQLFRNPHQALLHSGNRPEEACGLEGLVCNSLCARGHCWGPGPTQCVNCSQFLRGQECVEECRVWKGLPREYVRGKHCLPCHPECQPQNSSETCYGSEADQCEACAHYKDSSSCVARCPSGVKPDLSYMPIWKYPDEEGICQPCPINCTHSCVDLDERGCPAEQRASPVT
Text: (§2) To determine whether 39S retains the binding specificity and species cross-reactivity of its parental antibody AZ1.39.1, binding of 39S to the receptors of human ErbB family (EGFR, HER2, HER3, and HER4), the mouse Her2, and the cynomolgus monkey Her2 was examined by capture ELISA. Briefly, 96-well plates were coated with one of the following recombinant extracellular domain proteins: human EGFR, human HER2, human HER3, human HER4, mouse Her2, or cynomolgus monkey Her2. Antibody to be tested was prepared by diluting in a stepwise 1:3 serial dilution ranging from 50 nM down to 0.28 pM and then added to the wells in duplicate. After one hour of incubation, plates were washed, and goat anti-human IgG Fab HRP-conjugated secondary antibody was added to each well and the plates were incubated for 1 hour. The plates were washed and TMB substrate was added and incubated for 5-20 min to allow color development. The stop solution was added to the wells at the end of reaction and the plates were read at 450 nm. Binding signal (absorbance at 450 nm) was plotted against antibody concentration using Prism software.
(§3) Binding specificity and species cross-reactivity of bispecific antibodies to the recombinant extracellular domain protein of human EGFR, human HER2, human HER3, human HER4, mouse Her2, or cynomolgus monkey Her2 were determined by capture ELISA as described in Example 1. […]

HER2 = HER2 (Homo sapiens, UniProt P04626); assay: as above; set-up: recombinant extracellular domain proteins: human EGFR, human HER2, human HER3, human HER4, mouse Her2, or cynomolgus monkey Her2; details: recombinant extracellular domain protein
Text: as §2, §3

NCI-N87 cell = assay: Proliferation inhibition assay in serum-containing media; format: cell-based, human
Protocol: Cell viability was determined using Cell Titer Glo from Promega according to manufacturer's instructions.

binding by capture ELISA (mouse Her2)	binding by capture ELISA (HER2)	Molecule	EC50 (MDA-MB-453)	EC50 (NCI-N87)	in vivo activity (tumor growth) (ST455B model)	in vivo activity (tumor growth) (ST996 model)	EC50 (SKBR-3)	in vivo activity (tumor growth) (MDA-MB-361 model)	In vitro potency (EC50 in pM) (RT-112)	In vitro potency (EC50 in pM) (ZR-75-1)	inhibition of cell proliferation (NCI-N87 cell)	inhibition of cell growth in combination (NCI-N87 cell; combined with trastuzumab or pertuzumab)
–	–	T-DM1 [reference compound]	344 pM	275 pM	no activity	no activity	82.6 pM	limited activity	Inactive	Inactive	–	–
not	can bind	39S: lead optimized monoclonal antibody derived from the 1.39.1 antibody; VH SEQ ID NO:15, VL SEQ ID NO:16 (antibody, V domains shown) VH: EVQLVESGGGLVKPGGSLRLSCAASGFTFSSYSMSWVRQAPGKGLEWVSSISSSSSYIYYADSVKGRFTISRDNAKNSLYLQMNSLRAEDTAVYYCARGGDAYNYYYFDYWGQGTLVTVSS VL: DIVMTQTPLSLSVTPGQPASISCKSSQSVFFRSNNKNILAWYLQKPGQPPQLLIYWASSRESGVPDRFSGSGSGTDFTLKISRVEAEDVGVYYCQQYFGSPFTFGPGTKVDIK	–	–	–	–	–	–	–	–	limited activity	strong synergistic effect
